Experimental data taken from paper PMC8230625 (International Journal of Molecular Sciences, 2021).
“And” between values parts separate entries of the source, which are not always exact repeats. Identical values can stand only once. Like-named read-outs stand apart in the source and are kept apart here.

Assays:
[1] = in vitro; settings: human
Protocol: (§1) The HeLa cervical cancer adherent cell line (ATCC: CCL-2) was applied for the evaluation of individual and combined effects of mycotoxins on cell viability. The cells were cultured in DMEM (high glucose, 4500 mg/L) with 10% FBS, penicillin (100 U/mL), and streptomycin (100 μg/mL) in sterile plastic cell culture flasks (75 cm^2; 5% CO2, 37 °C). The cells were trypsinized and plated onto 96-well sterile plastic plates. Stock solutions (each 5000 μM) of ZEN, ZELs, ZAN, and ZALs used in cell experiments were prepared in 96 v/v% ethanol (spectroscopic grade; VWR, Debrecen, Hungary). Stock solutions of AOH (5000 μM or 40 mM) were prepared in spectroscopic grade dimethyl sulfoxide (DMSO; Fluka, Morris Plains, NJ, USA). Mycotoxin stock solutions were stored at −20 °C.
(§2) HeLa cells were treated with ZEN, α/β-ZEL, ZAN, α/β-ZAL, and AOH (0–250 μM) for 24 h. […] The cell viability was evaluated based on the ATP levels/well employing a previously described method without modifications.
(§3) Combined effects were evaluated based on combination indices (CI) determined using the CompuSyn software (ComboSyn Inc., Paramus, NJ, USA) by the median-effect equation of the mass-action law:(1) logfa/fu=m×log(D)−m×log(Dm), where fa and fu are the affected and unaffected fractions of the system, respectively; D represents the dose, Dm denotes the dose necessary for the production of median effect, while m is the sigmoidicity coefficient (m > 1 sigmoidal, m = 1 hyperbolic, m < 1 flat sigmoidal).
(§4) The combined effects of mycotoxins were determined by the CI values calculated based on the following equation [68]:(2) CI=(D)1/(Dx)1+(D)2/(Dx)2, where (Dx)1 and (Dx)2 are the individual doses necessary for the production of x% effect, while (D)1 and (D)2 are the doses of the two compounds that combined evoke the same effect as (Dx)1 alone or (Dx)2 alone, i.e., the targeted x% effect.

[2] = tested on: HeLa cells; assay: in vitro; settings: for Concentration at (and above) which statistically significant (p < 0.01) decrease in cell viability was noticed: 24 h incubation, single compound; for IC50: Homo sapiens, read-out: Dm (IC50), viability of HeLa cells (ATP/well)
Protocol: as §1, §2, §3, §4

[3] = target: T1, hERα (Saccharomyces cerevisiae BLYES strain) (Homo sapiens, UniProt P03372); assay: cell-based; assay type: cell-based; settings: for CI Value (combination index) / Combined Estrogenic Effect / Combined Estrogenic Effect (grade symbol): + 6.28 × 10^−2 µM ZEN; for Combined estrogenic effect in Figure 5B: + 62.8 ×10^-3 μM ZEN; for Effect of subtoxic (non-estrogenic) concentration of the compound on the estrogenic effect of ZEN: co-treatment with ZEN (approx. 20% estrogenicity), α-ZEL 1.56 × 10^−3 µM, ZAN 6.24 × 10^−3 µM, AOH up to 48.4 µM, Figure 5A; for Concentration at (and above) which statistically significant (p < 0.01) estrogenic effect was observed: single compound
T1 construct: expressed in transfected cells; host or cells: Saccharomyces cerevisiae BLYES strain (hERα gene integrated in the chromosome)
Source text: The Saccharomyces cerevisiae BLYES strain was applied to examine the estrogenic activity of the compounds tested. This bioluminescent yeast bioreporter harbors the hERα gene on its chromosome, and it has two plasmids with genes responsible for bioluminescence. The pUTK404 plasmid contains luxC, -D, and -E genes from Photorhabdus luminescens and flavin oxidoreductase gene (frp) from Vibrio harveyi. The pUTK407 plasmid contains tandem estrogen responsive elements (EREs) that initiate the transcription of luxA and luxB genes after binding the dimer formed by estrogen receptor—ligand complexes.
S. cerevisiae BLYES strain was grown in 30 mL of yeast growth medium (YMM leu-, ura-) for 18–20 h at 30 °C.
Stock solutions of the compounds tested were prepared in methanol and stored at −20 °C. Estrogen assays were carried out on 96-well (PS, F-bottom) microplates (Greiner Bio-One Hungary Ltd., Mosonmagyaróvár, Hungary). In single compound tests, stock solutions of the compounds were serially diluted with methanol; whereas, in co-exposure experiments, a 20-µL mixture of the solutions was placed into the wells of the microplates. After the evaporation of methanol, yeast culture (200 µL; OD600 of 1.000 ± 0.050) were pipetted into each well. E2 was applied as a positive control, while wells containing only yeast cells and yeast cells with methanol served as negative and solvent controls, respectively. Bioluminescence (cps, counts per second) was measured after 5-h incubation (30 °C) with a VictorX Multilabel Plate Reader (Perkin Elmer Inc., Waltham, MA, USA).
as §3, §4
Zero percent was defined in each measurement as the mean of the methanol control values, and 100% was defined as the mean of all plateau values of single compounds’ concentration—response curves.

[4] = HeLa, 24 h, 10 µM (lower toxic concentration) of the compound + 20 µM ZEN
[5] = HeLa, 24 h, 10 µM of the compound + 20 µM ZEN
[6] = HeLa, 24 h, 10 µM of the compound + 20 µM ZEN, CompuSyn
[7] = HeLa, 24 h, 30 µM (higher toxic concentration) of the compound + 20 µM ZEN
[8] = HeLa, 24 h, 30 µM of the compound + 20 µM ZEN
[9] = HeLa, 24 h, 30 µM of the compound + 20 µM ZEN, CompuSyn
[10] = BLYES, higher concentration (µM): α-ZEL 1.25 × 10^−2, β-ZEL 2.43, ZAN 4.99 × 10^−2, α-ZAL 2.48 × 10^−2, β-ZAL 2.48 × 10^−1, GEN 1.48
[11] = BLYES, higher estrogenic concentration of the compound (as E22)
[12] = BLYES, lower concentration (µM): α-ZEL 6.24 × 10^−3, β-ZEL 1.22, ZAN 2.50 × 10^−2, α-ZAL 1.24 × 10^−2, β-ZAL 1.24 × 10^−1, GEN 7.4 × 10^−1
[13] = BLYES, lower estrogenic concentration of the compound (as E21)
[14] = BLYES, higher estrogenic concentration of the compound (as E20)
[15] = BLYES, lower estrogenic concentration of the compound (as E19)

T1 sequence (P03372 whole entry): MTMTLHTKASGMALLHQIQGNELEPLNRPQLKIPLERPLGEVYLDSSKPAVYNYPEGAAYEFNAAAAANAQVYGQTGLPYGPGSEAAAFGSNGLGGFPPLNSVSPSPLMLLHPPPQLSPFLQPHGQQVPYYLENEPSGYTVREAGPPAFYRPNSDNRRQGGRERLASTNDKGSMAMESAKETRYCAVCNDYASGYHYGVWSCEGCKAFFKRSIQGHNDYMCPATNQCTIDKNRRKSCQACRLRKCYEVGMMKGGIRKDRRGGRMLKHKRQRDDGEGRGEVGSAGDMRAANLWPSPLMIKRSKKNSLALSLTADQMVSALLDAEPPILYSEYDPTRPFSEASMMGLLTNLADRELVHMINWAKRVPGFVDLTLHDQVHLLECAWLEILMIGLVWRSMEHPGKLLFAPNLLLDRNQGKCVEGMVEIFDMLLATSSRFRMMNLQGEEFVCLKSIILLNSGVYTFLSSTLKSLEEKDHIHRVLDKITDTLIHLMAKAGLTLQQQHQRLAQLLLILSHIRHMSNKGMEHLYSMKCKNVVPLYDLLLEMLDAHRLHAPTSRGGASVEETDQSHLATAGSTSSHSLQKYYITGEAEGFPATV

| Compound | cytotoxicity at 10 µM [1] [%] | cytotoxicity at 30 µM [1] [%] | Combined cytotoxic effect in Figure 3B [2, 4] | Combined Cytotoxic Effect [2, 5] | Combined Cytotoxic Effect (grade symbol) [2, 5] | Combined cytotoxic effect in Figure 3B [2, 7] | Combined Cytotoxic Effect [2, 8] | Combined Cytotoxic Effect (grade symbol) [2, 8] | Concentration at (and above) which statistically significant (p < 0.01) decrease in cell viability was noticed ([2]; HeLa) [µM] | IC50 ([2]; HeLa, 24 h) [µM] | EC50 [3] [µM] | CI Value (combination index) [3, 10] | Combined Estrogenic Effect [3, 11] | Combined Estrogenic Effect (grade symbol) [3, 11] | CI Value (combination index) [3, 12] | Combined Estrogenic Effect [3, 13] | Combined Estrogenic Effect (grade symbol) [3, 13] | Combined estrogenic effect in Figure 5B [3, 14] | Combined estrogenic effect in Figure 5B [3, 15] | Concentration at (and above) which statistically significant (p < 0.01) estrogenic effect was observed ([3]; BLYES) [µM] | further results |
| --- | --- | --- | --- | --- | --- | --- | --- | --- | --- | --- | --- | --- | --- | --- | --- | --- | --- | --- | --- | --- | --- |
| C[C@H]1CCC[C@H](O)CCC/C=C/c2cc(O)cc(O)c2C(=O)O1 [α-ZEL, α-zearalenol] | 5.5 | 38.4 | Syn | Synergism (CI < 0.8: synergism) | ++ (CI < 0.60: ++) | Add | Additive effect (0.8 < CI < 1.2: additive effect) | ± (0.80 < CI < 1.20: ±) | 20 | 44.6 | 0.019 | 0.41 | Synergism (CI < 0.8: synergism) | ++ (CI < 0.60: ++) | 0.37 | Synergism (CI < 0.8: synergism) | ++ (CI < 0.60: ++) | synergism | synergism |  | CI Value (combination index) [2, 6]: 0.57; CI Value (combination index) [2, 9]: 0.81; Effect of subtoxic (non-estrogenic) concentration of the compound on the estrogenic effect of ZEN ([3]; BLYES): statistically significant (p < 0.05) increases |
| C[C@H]1CCCC(=O)CCCCCc2cc(O)cc(O)c2C(=O)O1 [ZAN, zearalanone] | 13.2 | 34.8 | Syn and synergism | Synergism (CI < 0.8: synergism) | ++ (CI < 0.60: ++) | Syn and synergism | Synergism (CI < 0.8: synergism) | + (0.60 < CI < 0.80: +) | 10 | 61.5 | 0.048 | 0.62 | Synergism (CI < 0.8: synergism) | + (0.60 < CI < 0.80: +) | 0.58 | Synergism (CI < 0.8: synergism) | ++ (CI < 0.60: ++) | synergism | synergism | 0.012 | CI Value (combination index) [2, 6]: 0.55; CI Value (combination index) [2, 9]: 0.77; Effect of subtoxic (non-estrogenic) concentration of the compound on the estrogenic effect of ZEN ([3]; BLYES): statistically significant (p < 0.05) increases |
| C[C@H]1CCC[C@@H](O)CCCCCc2cc(O)cc(O)c2C(=O)O1 [β-ZAL, β-zearalanol] | 9.6 | 28 | Syn | Synergism (CI < 0.8: synergism) | ++ (CI < 0.60: ++) | Syn | Synergism (CI < 0.8: synergism) | + (0.60 < CI < 0.80: +) | 10 | 64.5 | 0.18 | 1.56 | Antagonism (CI > 1.2: antagonism) | -- (CI > 1.40: --) | 1.19 | Additive effect (0.8 < CI < 1.2: additive effect) | ± (0.80 < CI < 1.20: ±) | antagonism | additive effect | 0.03 | CI Value (combination index) [2]: 0.51 and 0.72; Effect of the non-toxic (subtoxic) concentration of the compound on ATP levels of ZEN-exposed cells ([2]; HeLa, 24 h, co-exposure with toxic concentration of ZEN (20 μM), compared to ZEN-exposed cells, Figure 3A): statistically significant (p < 0.01) decreases in ATP levels |
| C[C@H]1CCCC(=O)CCC/C=C/c2cc(O)cc(O)c2C(=O)O1 [ZEN, zearalenone] |  |  |  |  |  |  |  |  | 10 | 56.4 | 0.46 |  |  |  |  |  |  |  |  | 0.031 | cytotoxicity at 24 h, 20 µM ([1]; Decrease in cellular ATP levels (% of control), individual effect, HeLa, 24 h, single compound at 20 μM): 30.1%; cytotoxicity ([2]; read-out: Decrease in cellular ATP levels (% of control), individual effect, HeLa, 24 h, single compound at 20 μM, 20 µM): ~30%; Estrogenic effect (% increase), individual effect ([3]; BLYES, ZEN alone at 62.8 ×10^-3 μM (6.3 × 10^−2 µM)): approximately 20% |
